Data from patent US7932269B2, “Sulfonamides as orexin antagonists” (Hoffmann-La Roche Inc., priority 2008, dated 2011).
No end group written: not given here.

Biological target: T1, human orexin-2 (hOX2) receptors (Homo sapiens, UniProt O43614)
T1 construct: expressed in transfected cells
T1 sequence (O43614 1-444): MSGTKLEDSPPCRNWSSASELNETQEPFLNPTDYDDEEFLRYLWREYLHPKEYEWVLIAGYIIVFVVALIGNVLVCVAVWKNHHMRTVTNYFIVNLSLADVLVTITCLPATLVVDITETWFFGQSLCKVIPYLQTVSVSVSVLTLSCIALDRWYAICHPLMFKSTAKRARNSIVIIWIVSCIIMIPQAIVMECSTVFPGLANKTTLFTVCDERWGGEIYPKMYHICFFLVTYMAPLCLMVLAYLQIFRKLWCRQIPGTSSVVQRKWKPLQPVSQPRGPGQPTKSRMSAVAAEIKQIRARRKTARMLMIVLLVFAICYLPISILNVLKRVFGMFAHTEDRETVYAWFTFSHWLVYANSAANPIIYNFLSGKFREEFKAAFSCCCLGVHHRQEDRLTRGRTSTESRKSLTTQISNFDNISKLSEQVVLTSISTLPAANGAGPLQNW
Test: Intracellular Ca2+ mobilization assay (FLIPR), orexin-A as agonist
Assay type: cell-based
Conditions: CHO(dHFr-) cells stably expressing hOX2; antagonist applied 25 min before EC80 of orexin-A; Kb=IC50/(1+[A]/EC50); read-out: Kb (μM) OX2R (human)
Experimental: Intracellular Ca^2+ Mobilization Assay
The Chinese Hamster Ovary (dHFr-) mutant cell line stably expressing human orexin-1 (hOX1) or human orexin-2 (hOX2) receptors were maintained in Dulbecco's Modified Eagle Medium (1X) with GlutaMax™ 1, 4500 mg/L D-Glucose and Sodium Pyruvate (Catalog No. 31966-021, Invitrogen, Carlsbad, Calif.), 5% dialyzed fetal calf serum (Catalog No. 26400-044), 100 μg/ml penicillin and 100 μg/ml streptomycin. The cells were seeded at 5×10^4 cells/well in the poly-D-lysine treated, 96-well, black/clear-bottomed plates (Catalog No. BD356640, BD Biosciences, Palo Alto, Calif.). 24 h later, the cells were loaded for 1 hr at 37° C. with 4 μM Flou-4 acetoxymethyl ester (Catalog No. F-14202, Molecular Probes, Eugene, Oreg.) in FLIPR buffer (1×HBSS, 20 mM HEPES, 2.5 mM Probenecid). Hanks' Balanced Salt Solution (HBSS) (10X) (catalog No. 14065-049) and HEPES (1M) (catalog No. 15630-056) were purchased from Invitrogen, Carlsbad, Calif. Probenecid (250 mM) (catalog No. P8761) was from Sigma, Buchs, Switzerland. The cells were washed five times with FLIPR buffer to remove excess dye and intracellular calcium mobilization, [Ca^2+] were measured using a Fluorometric Imaging Plate Reader (FLIPR-96, Molecular Devices, Menlo Park, Calif.) as described previously (Malherbe et al., Mol. Pharmacol., 64, 823-832, 2003). Orexin A (catalog No.1455, Toris Cookson Ltd, Bristol, UK) was used as agonist. Orexin A ([…] stock solution in DMSO) was diluted in FLIPR buffer +0.1% BSA. The EC50 and EC80 values of orexin-A were measured daily from standard agonist concentration-response curves in CHO(dHFr-)-OX1R and —OX2R cell lines. All compounds were dissolved in 100% DMSO. Inhibition curves were determined by addition of 11 concentrations (0.0001-10 μM) of inhibitory compounds and using EC80 value of orexin-A as agonist (a concentration which gave 80% of max agonist response, determined daily). The antagonists were applied 25 min (incubation at 37° C.) before the application of the agonist. Responses were measured as peak increase in fluorescence minus basal, normalized to the maximal stimulatory effect induced by EC80 value of orexin-A or orexin-B. Inhibition curves were fitted according to the Hill equation: y=100/(1+(x/1C50)^nH), where nH=slope factor using Excel-fit 4 software (Microsoft). Kb values were calculated according to the following equation Kb=IC50/(1+[A]/EC50) where A is the concentration of agonist added which is very close to agonist EC80 value, and IC50 and EC50 values were derived from the antagonist inhibition and orexin-A or B agonist curves, respectively.
Compound COc1ccc(N(CC(=O)N2CCCC2c2ccc(F)cc2)S(=O)(=O)c2ccc(OC)cc2)cc1 (stereo not drawn) [Example 41, N-{2-[2-(4-Fluoro-phenyl)-pyrrolidin-1-yl]-2-oxo-ethyl}-4-methoxy-N-(4-methoxy-phenyl)-benzenesulfonamide] has a Kb of 0.0026 µM.
Work on COc1ccc(S(=O)(=O)N(CC(=O)N2CCCC2c2ccccc2)c2ccccc2OC)cc1 (stereo not drawn) [Example 43, 4-Methoxy-N-(2-methoxy-phenyl)-N-[2-oxo-2-(2-phenyl-pyrrolidin-1-yl)-ethyl]-benzenesulfonamide] yielded a Kb of 0.0032 µM.
COc1ccc(S(=O)(=O)N(CC(=O)N2CCCC2c2ccc(F)cc2)c2ccc(F)cc2)cc1 (stereo not drawn) [Example 45, N-(4-Fluoro-phenyl)-N-{2-[2-(4-fluoro-phenyl)-pyrrolidin-1-yl]-2-oxo-ethyl}-4-methoxy-benzenesulfonamide] gave a Kb of 0.0079 µM.
In the case of COc1ccc(S(=O)(=O)N(CC(=O)N2CCCC2c2ccccc2)c2cccc(C(F)(F)F)c2)cc1 (stereo not drawn) [Example 47, 4-Methoxy-N-[2-oxo-2-(2-phenyl-pyrrolidin-1-yl)-ethyl]-N-(3-trifluoromethyl-phenyl)-benzenesulfonamide], the Kb is reported as 0.0077 µM.
COc1ccccc1S(=O)(=O)N(CC(=O)N1CCCC1c1ccc(F)cc1)c1ccc(Cl)cc1 (stereo not drawn) [Example 52, N-(4-Chloro-phenyl)-N-{2-[2-(4-fluoro-phenyl)-pyrrolidin-1-yl]-2-oxo-ethyl}-2-methoxy-benzenesulfonamide] showed a Kb of 0.0003 µM.

Tested on: rat
Test: not given
Conditions: icv administration; cited from earlier work
For “OX-A: orexin-A/hypocretin1, 33 amino acid hypothalamic neuropeptide derived from prepro-orexin (QPLPDCCRQKTCSCRLYELLHGAGNHAAGILTL; ends and bridges not checked; cysteine pairing not given here; UniProt O43612 34-66, looked up)”, the “reduction of total REM sleep” value is listed as 84%.
